Data on one compound can be found in US10952966B2, “Pharmaceutical composition comprising solid dispersion of BCS class II drugs with Gelucires” (GATTEFOSSE INDIA PVT. LTD., priority 2014, dated 2021).

A short description of data set [1]: Stress degradation of plain TEL drug, stability indicating HPLC method. In kind it is physicochemical.
For data set [2] the following is noted: pH 3 to 9; cited from earlier work.
The conditions of data set [3]: n-octanol: buffer pH 7.4; cited from earlier work.

Turning to `CCCc1nc2c(C)cc(-c3nc4ccccc4n3C)cc2n1Cc1ccc(-c2ccccc2C(=O)O)cc1` [TEL, Telmisartan], the “reduction in area (HPLC)” value in data set [1] (1 N NaOH at 80° C. for 8 hours) is 64.4%. Moreover, the TEL degradation result in data set [1] (pH modifiers employed in low concentration) is given as “no TEL degradation was observed”. Further, in data set [2], the solubility result is “poorly soluble”. The “partition coefficient, log P” value in data set [3] is on record as 3.2.
